Results published in ChEMBL document CHEMBL1201862, “PubChem BioAssay data set” (2004).
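Compound exposure: 48 hours, 5 concentrations, 96-well plates. At the GI50, growth is halved.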 Active and inactive are the calls of the source. Rule as the data show it: active = GI50 up to about 1.1 µM and inactive = higher.

Key:
Experiment in all cases: growth of human tumour cells (NCI), 48 h
[1] = system: DMS-114
[2] = system: NCI-H226
[3] = system: SK-MEL-28
[4] = system: DLD-1
[5] = system: A498
[6] = system: K562
[7] = system: SF-539
[8] = system: SNB-19
[9] = system: MOLT-4
[10] = system: SF-268
[11] = system: OVCAR-4
[12] = system: SK-OV-3
[13] = system: XF498
[14] = system: DMS-273
[15] = system: OVCAR-8
[16] = system: HCT-116
[17] = system: HCT-15
[18] = system: M19-MEL
[19] = system: NCI-H23
[20] = system: CCRF-CEM
[21] = system: NCI-H460
[22] = system: MCF7
[23] = system: HT-29
[24] = system: SNB-75
[25] = system: NCI-H522
[26] = system: EKVX
[27] = system: UACC-257
[28] = system: OVCAR-5
[29] = system: LOX IMVI
[30] = system: U-251
[31] = system: SF-295
[32] = system: SK-MEL-2
[33] = system: SW-620
[34] = system: A549
[35] = system: RPMI-8226
[36] = system: NCI/ADR-RES
[37] = system: SN12C
[38] = system: IGROV-1
[39] = system: UO-31
[40] = system: OVCAR-3
[41] = system: HOP-62
[42] = system: RXF 393
[43] = system: HCC 2998
[44] = system: SK-MEL-5
[45] = system: HOP-92
[46] = system: Malme-3M
[47] = system: COLO 205
[48] = system: HL-60
[49] = system: KM12
[50] = system: KM-20L2
[51] = system: SNB-78
[52] = system: HOP-18
[53] = system: UACC-62
[54] = system: M14
[55] = system: 786-0
[56] = system: CAKI-1
[57] = system: ACHN
[58] = system: TK-10
[59] = system: LXFL 529

SMILES: Cc1ccc(S(=O)(=O)Oc2cc(-c3ccccc3)nc3ccccc23)cc1
- GI50 [1]: 0.333 µM (active)
- GI50 [2]: 6.4 µM (inactive)
- GI50 [3]: 11.3 µM (inactive)
- GI50 [4]: 2.49 µM (inactive)
- GI50 [5]: 2.36 µM (inactive)
- GI50 [6]: 0.869 µM (active)
- GI50 [7]: 2.08 µM (inactive)
- GI50 [8]: 0.419 µM (active)
- GI50 [9]: 3.63 µM (inactive)
- GI50 [10]: 8.77 µM (inactive)
- GI50 [11]: 7.33 µM (inactive)
- GI50 [12]: 2.23 µM (inactive)
- GI50 [13]: 3.91 µM (inactive)
- GI50 [14]: 1.04 µM (active)
- GI50 [15]: 5.24 µM (inactive)
- GI50 [16]: 2.36 µM (inactive)
- GI50 [17]: 1.41 µM
- GI50 [18]: 3.3 µM (inactive)
- GI50 [19]: 2.53 µM (inactive)
- GI50 [20]: 2.89 µM (inactive)
- GI50 [21]: 1.81 µM (inactive)
- GI50 [22]: 0.604 µM (active)
- GI50 [23]: 1.93 µM (inactive)
- GI50 [24]: 1.92 µM (inactive)
- GI50 [25]: 1.13 µM (inactive)
- GI50 [26]: 19.4 µM (inactive)
- GI50 [27]: 10 µM (inactive)
- GI50 [28]: 15.8 µM (inactive)
- GI50 [29]: 8.97 µM (inactive)
- GI50 [30]: 2.51 µM (inactive)
- GI50 [31]: 1.91 µM (inactive)
- GI50 [32]: 1.98 µM (inactive)
- GI50 [33]: 1.22 µM (inactive)
- GI50 [34]: 3.15 µM (inactive)
- GI50 [35]: 2.61 µM (inactive)
- GI50 [36]: 1.95 µM (inactive)
- GI50 [37]: 5.93 µM (inactive)
- GI50 [38]: 3.85 µM (inactive)
- GI50 [39]: 6.3 µM (inactive)
- GI50 [40]: 2.12 µM (inactive)
- GI50 [41]: 3.73 µM (inactive)
- GI50 [42]: 2.95 µM (inactive)
- GI50 [43]: 1 µM (active)
- GI50 [44]: 1.42 µM (inactive)
- GI50 [45]: 3.83 µM (inactive)
- GI50 [46]: 1.58 µM (inactive)
- GI50 [47]: 0.544 µM (active)
- GI50 [48]: 1.03 µM (active)
- GI50 [49]: 1.2 µM (inactive)
- GI50 [50]: 1.57 µM (inactive)
- GI50 [51]: 7.08 µM (inactive)
- GI50 [52]: 7.62 µM (inactive)
- GI50 [53]: 3.01 µM (inactive)

SMILES: COc1ccc([C@H]2CC3C(=O)N(c4ccc(OC)cc4)C(=O)C3c3[nH]c4ccccc4c32)cc1 (stereo not given in full)
- GI50 [1]: 87.9 µM (inactive)
- GI50 [2]: 91 µM (inactive)
- GI50 [3]: 83.9 µM (inactive)
- GI50 [4]: 93.8 µM (inactive)
- GI50 [5]: > 100 µM (inactive)
- GI50 [6]: > 100 µM (inactive)
- GI50 [7]: 20.7 µM (inactive)
- GI50 [8]: 32.1 µM (inactive)
- GI50 [9]: 32.9 µM (inactive)
- GI50 [10]: 82 µM (inactive)
- GI50 [11]: > 100 µM (inactive)
- GI50 [12]: 44.2 µM (inactive)
- GI50 [13]: 32.7 µM (inactive)
- GI50 [14]: 14.8 µM (inactive)
- GI50 [15]: 17.1 µM (inactive)
- GI50 [54]: 66.5 µM (inactive)
- GI50 [16]: 9.31 µM (inactive)
- GI50 [17]: 57.4 µM
- GI50 [55]: 10.8 µM (inactive)
- GI50 [56]: > 100 µM (inactive)
- GI50 [18]: 71.4 µM (inactive)
- GI50 [19]: 54 µM (inactive)
- GI50 [20]: 48.4 µM (inactive)
- GI50 [21]: 18.6 µM (inactive)
- GI50 [24]: 16.1 µM (inactive)
- GI50 [25]: 99.5 µM (inactive)
- GI50 [26]: > 100 µM (inactive)
- GI50 [27]: > 100 µM (inactive)
- GI50 [57]: > 100 µM (inactive)
- GI50 [28]: > 100 µM (inactive)
- GI50 [29]: > 100 µM (inactive)
- GI50 [30]: 59.6 µM (inactive)
- GI50 [31]: 16.7 µM (inactive)
- GI50 [32]: 53 µM (inactive)
- GI50 [33]: 45.6 µM (inactive)
- GI50 [34]: 47.4 µM (inactive)
- GI50 [37]: 51.9 µM (inactive)
- GI50 [38]: > 100 µM (inactive)
- GI50 [39]: > 100 µM (inactive)
- GI50 [58]: > 100 µM (inactive)
- GI50 [40]: > 100 µM (inactive)
- GI50 [41]: 32.7 µM (inactive)
- GI50 [43]: > 100 µM (inactive)
- GI50 [44]: 46.3 µM (inactive)
- GI50 [45]: 24 µM (inactive)
- GI50 [46]: 36.1 µM (inactive)
- GI50 [47]: 97.5 µM (inactive)
- GI50 [49]: 47 µM (inactive)
- GI50 [50]: 69.5 µM (inactive)
- GI50 [59]: 55.1 µM (inactive)
- GI50 [51]: > 100 µM (inactive)
- GI50 [53]: > 100 µM (inactive)
